Source: publication PMC11335710 (GeroScience, 2024)
“Also recorded” adds a separate entry of the source. Ends that are not written are not given here.

Experiments:
[1] = tested on: SH-SY5Y human neuroblastoma cells; test: 6-OHDA-mediated cell loss in SH-SY5Y cells (TOPRO-3 cell density); format: cell-based; settings: 6-OHDA 100 µM 2 h, GLP-1 or GIP 10 nM, DPP-4 inhibitor 1 µM, read at 24 h
Protocol: Five minutes later, the cells were treated with vehicle or freshly prepared 6-OHDA (100 µM) for 2 h. GIP, GLP-1, and DPP-4 inhibitor or vehicle were added to the media again after three washes. […] The cells were then washed in PBS for three times and, thereafter, were imaged using a Licor Odyssey IR scanner. Cell density in each well was analyzed by using Licor Odyssey In Cell Western analyses software v 3.0, as previously described [45].
In our study, TOPRO-3 was applied to cells after fixation with 4% PFA. The cells were washed in PBS for three times and, thereafter, were imaged using a Licor Odyssey IR scanner. Under these conditions, it is likely that any dead cells were washed away before quantifying fluorescence.

[2] = tested on: rat primary ventral mesencephalic cultures; test: 6-OHDA toxicity in rat primary ventral mesencephalic cultures (TH cell density); format: cell-based; settings: rat primary VM cultures, 6-OHDA 100 µM 2 h; for Effect of co-administered DPP-4 inhibitor on protective response of GIP and GLP-1 (TH cell density): PF-00734,200 1 µM with GLP-1 or GIP 10 nM; for Effect on 6-OHDA-mediated reduction in TH cell density: GLP-1 or GIP 10 nM, fixed 22 h after washing
Excerpt: Primary cultures were generated from embryonic (E14-15) ventral mesencephalon (VM) brain tissue removed from fetuses of timed-pregnant Sprague–Dawley rats (Charles River Laboratories, Wilmington, MA), in line with published procedures with minor modifications. Briefly, the whole brain was removed aseptically, and a small piece of tissue containing the VM was separated. Blood vessels and meninges were detached, and remaining pooled VM tissues were gently trypsinized (0.25% (Invitrogen, Carlsbad, CA), 15 min at 37°C). Trypsin was removed with pre-warmed DMEM/F-12 (Invitrogen), and cells were dissociated by trituration and then counted and plated into 96-well (6.0 × 10^4/well) cell culture plates that were pre-coated with poly-D-lysine (Sigma-Aldrich). The culture plating medium was Dulbecco’s modified Eagle medium/F12 supplemented with 10% heat-inactivated fetal bovine serum, 1 mM L-glutamine, and 2% B27 (Invitrogen). VM cells were maintained at 37°C in a humidified atmosphere (5% CO2 and 95% air) and fed by exchanging 50% of media with feed media (Neurobasal medium, Invitrogen) with 0.5 mM L-glutamate and 2% B27 with antioxidants supplement on DIV (days in vitro) 3 and 5. On DIV7, VM cultures were fed with media containing B27 supplement minus antioxidants (Invitrogen). Thereafter, freshly prepared 6-OHDA (100 µM in 20 µM ascorbic acid saline solution) or saline (with 20 µM ascorbic acid) was added to the wells on DIV 10. Following 2-h incubation, cultures were washed with feed media plus ( −) AO B27 three times. DPP-4 inhibitor (PF-00734,200), incretins, or vehicle was added to the well at the last wash as a post-treatment strategy. Cells were returned to a 37°C incubator for 22 h and then fixed with 4% paraformaldehyde (PFA) for immunoreactivity evaluation.

[3] = tested on: 6-OHDA lesioned rats; settings: rats with unilateral medial forebrain bundle 6-OHDA lesion; cited from earlier work
[4] = Plasma sitagliptin pharmacokinetics in nonhuman primates (LC-MS, noncompartmental analysis)
Protocol: Animals included Macaca mulatta of 7 to 20 kg weight, mixed gender, 12 to 19 years of age (n = 5 to 7 per group). […] Commercially prepared monkey chow was distributed twice per day along with daily food enrichment, and water was available ad libitum. Monkeys were observed daily for food consumption and overall well-being.
(§1) Immediately thereafter, an oral glucose tolerance test was performed to stimulate incretin secretion. This is designated as time zero (i.e., 0) in Figs. 2, 4 and 5.
(§2) Further samples were collected without the inhibitor for DPP-4 analysis to permit quantification of DPP-4 inhibition. Incretin levels were measured with the following assays: Active GLP-1 ((ver 2 kit) Meso Scale Diagnostic), Active GIP (ELISA kit—IBL America), DPP-4 activity was evaluated by fluorometric assay using a DPPIV/CD26 assay kit for biological samples ((BML-AK498-0001) Enzo Life Sciences, Farmingdale, NY).
A noncompartmental approach to pharmacokinetic analysis was employed using Phoenix WinNonlin v8.3 (Certara Corp, Cary, NC). The maximum plasma concentration (Cmax) and the time of maximum plasma concentration (Tmax) were recorded as observed values. […] AUCINF (the AUC from time zero to infinity) was calculated by extrapolation by dividing Clast (the last measurable drug concentration) by the rate constant of the terminal phase, lZ (Kel). This constant was determined from the slope of the terminal phase of the concentration–time curve using uniformly weighted least squares as the estimation procedure and acceptance criteria of (i) adjusted r^2 > 0.8 and (ii) includes > 3 time points in the terminal phase.

[5] = tested on: GLP-1 and GIP; test: CSF GLP-1 and GIP levels in NHPs (both incretins, summary in text); format: in vivo, Macaca mulatta; settings: CSF at 3 and 5 h after day 6 sitagliptin, NHP
Protocol: as §1, §2

[6] = set-up: method as in Reference 33 within 44; settings: Merck's data on file; ref Reference 33 within 44; cited from earlier work
[7] = cited from earlier work
[8] = tested on: p-glycoprotein; settings: in relation to renal clearance; cited from earlier work
[9] = tested on: organic anion transporter 3 (hOAT3); settings: in relation to renal clearance; cited from earlier work
[10] = in vivo; settings: both, Macaca mulatta
[11] = both, rhesus monkey, in vivo, po, 5 mg/kg
[12] = both, rhesus monkey, in vivo, po, 20 mg/kg
[13] = both, rhesus monkey, in vivo, po, 100 mg/kg

With `O=C([C@@H]1C[C@H](N2CCN(c3ncccn3)CC2)CN1)N1CCC(F)(F)C1` [PF-00734,200, gosogliptin] the “Effect on 6-OHDA-mediated cell loss (TOPRO-3 fluorescence cell density)” value (shortened to “Effect on 6-OHDA-mediated cell loss”) ([1]; listed as DPP-4I) was “ameliorated”, the “Effect on 6-OHDA-mediated cell loss” value ([1]; listed as DPP-4 inhibitor) was “partially mitigated” and the “Effect of co-administered DPP-4 inhibitor on protective response of GIP and GLP-1 (TH cell density)” value [2] was “significantly potentiated”. For the same compound, the “Effect of co-administered DPP-4 inhibitor on protective response of GIP and GLP-1 (TH cell density)” value ([2]; listed as DPP-4I) was “further reduced” and the “Effect on dopaminergic neurons, dopamine levels and methamphetamine-mediated rotation” value [3] was “mitigated the loss of dopaminergic neurons and dopamine levels”.

For “glucagon-like peptide-1 (HAEGTFTSDVSSYLEGQAAKEFIAWLVKGR; ends and bridges not checked; UniProt P01275 98-127, looked up) [GLP-1, endogenous incretin hormone added to cultures at 10 nM]”, the “Effect on 6-OHDA-mediated cell loss” value [1] was “partially mitigated; also recorded: ameliorated”, the “Effect on 6-OHDA-mediated reduction in TH cell density” value (“Effect on 6-OHDA-mediated reduction” below) [2] was “partially but significantly mitigated” and the “Effect on 6-OHDA-mediated reduction” value ([2]; listed as GLP‐1) was “significant amelioration”.

For `N[C@@H](CC(=O)N1CCn2c(nnc2C(F)(F)F)C1)Cc1cc(F)c(F)cc1F` [sitagliptin], the Tmax ([4]; 20 mg/kg oral once daily, day 6, NHP plasma) was 2 h, the Tmax ([4]; both, Macaca mulatta, in vivo, po) was 2 h and the AUC(0-inf) [4, 11] was 8.81 µM·h. The AUC(0-t) [4, 11] was 7.83 µM·h, the Cmax [4, 11] was 0.768 µM and the half-life [4, 11] was 8.4 h. The k el [4, 11] was 2.28e-05 s⁻¹, the AUC(0-inf) [4, 12] was 50.9 µM·h and the AUC(0-t) [4, 12] was 49.6 µM·h. For the same compound, the Cmax [4, 12] was 7.06 µM, the half-life [4, 12] was 5 h and the k el [4, 12] was 3.87e-05 s⁻¹. The AUC(0-inf) [4, 13] was 214 µM·h, the AUC(0-t) [4, 13] was 193 µM·h and the Cmax [4, 13] was 13.7 µM. For the same compound, the Tmax [4, 13] was 2 to 8 h, the half-life [4, 13] was 6.7 h and the k el [4, 13] was 2.85e-05 s⁻¹. The Cmax ([4]; both, rhesus, Macaca mulatta, in vivo, po, 5 mg/kg) was 0.768 µM, the “Elevation of CSF levels of GLP-1 and GIP vs placebo” value [5] was 2.0- to 3.4 fold and the “Maximally well-tolerated sitagliptin dose in NHPs” value [6] was 100 mg/kg. For the same compound, the “log P” value [7] was 1.5, the Substrate for p-glycoprotein [8] was “substrate” and the “Substrate for organic anion transporter 3 (hOAT3)” value [9] was “substrate”. For the same compound, the “Effect on dopaminergic neurons, dopamine levels and methamphetamine-mediated rotation” value [3] was “mitigated the loss of dopaminergic neurons and dopamine levels”, the Kp at 3 h [10] was 0.01 and the Kp at 5 h [10] was 0.01.

For “glucose-dependent insulinotropic polypeptide [GIP]”, the “Effect on 6-OHDA-mediated cell loss” value [1] was “significantly antagonized; also recorded: ameliorated; also recorded: fully protected against cell loss” and the “Effect on 6-OHDA-mediated reduction” value [2] was “partially but significantly mitigated; also recorded: significant amelioration”.
